Reference: patent US6664231B1, “Anti-fungal peptides” (priority 1993, dated 2003)
Square brackets hold non-standard residues; d marks the D form. Peptide text beside a SMILES is read from it. * marks the point of attachment. d2Nal = N[C@H](Cc1ccc2ccccc2c1)C(=O)O; Lauroyl = CCCCCCCCCCCC(=O)*; Octanoyl = CCCCCCCC(=O)*; Orn = NCCC[C@H](N)C(=O)O; Dab = NCC[C@H](N)C(=O)O

Experiments:
[1] = Serum stability, anti-fungal activity after serum incubation by radial diffusion bioassay; format: in vitro ADME, rat or human serum; conditions: Activity in Serum t ½ (hr.)
Protocol: (§1) For these serum stability experiments, peptides were prepared by solid phase peptide sythesis and purified to 94% or greater purity as described in Example 1. Blood was collected from metaphane anesthesized rats by aortic bleed into Vacutainer™ tubes and allowed to clot at room temperature for approximately 30 minutes, then centrifuged at 3000 rpm (about 1000×g) for 10 minutes at room temperature and the serum aspirated. In addition, frozen human serum (North American Biologics, Inc., Miami, Fla., cat. no. 2140, lot no. 94115) was thawed at room temperature and filtered through a 0.45 μm membrane before use.
(§2) A 1 mg/mL solution of an exemplary XMP peptide to be tested was added to an equal volume of either rat or human serum described above and maintained at 37° C. At 0, 1, 2, and 4 hours, 100 μL were removed and processed by solid phase extraction for HPLC analysis as follows. Serum samples were prepared for HPLC using C-18 Sep-Pak cartridges (1 mL cartridge with 100 mg of sorbent, Waters Corp., Milford, Mass.). One hundred μL of serum sample were added to an equal volume of 1% TFA and mixed for 30 seconds on a Vortex mixer. The sample was then applied to a C-18 Sep-Pak cartridge that had been conditioned by washing with 1 mL of methanol followed by 1 mL Milli-Q water. Weakly reed components were eluted by washing with 1 mL of 0. 1% TFA. The bound peptide was eluted with two volumes of 250 μL 80% acetonitrile/0.065% TFA.
(§3) The peptides identified and purified after serum incubation as described above were subjected to N-terminal peptide sequencing performed on an Applied Biosystems Model 477A/120A sequencer and to electrospray ionization mass spectrometry (ESI/MS) performed using a VG Biotech Bio-Q Mass Spectrometer. In addition, the peptides identified and purified after serum incubation as described above were also tested for their anti-fungal activity in a radial diffusion bioassay with Candida albicans SLU-1 strain as described in Example 2.

[2] = tested on: C. albicans (CA-1, Strain SLU-1); assay: Radial diffusion assay; format: cell-based, Candida albicans; conditions: pmoles of peptide added to well to achieve a 30 mm^2 zone, PROBIT analysis, crude or purified (P′) peptide
How it was run: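 Yeast at 1×10^6 CFU/mL in agarose underlayer (3% Sabouraud, 10 mM sodium phosphate pH 7.4); 2-fold peptide dilutions in D-PBS from ~1 mg/mL loaded into wells, 3 h at 37° C, then nutrient overlayer overnight. Value: pmol/well giving 30 mm^2 net clear zone, by PROBIT regression.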

[3] = in vitro; format: in vitro ADME, rat or human serum; conditions: half-life of peptide in serum as detected by HPLC analysis; for half-life at 0.5 mg/mL: serum, read-out: HPLC Peptide in Serum t ½ (converted)
Protocol: as §1, §2
The material eluted from the Sep-Pak cartridge was analyzed on a Michrom Ultaafast Microprotein Analyzer equipped with a 150 mm×1 mm, 5μ particle, 300 Å pore C-8 Zorbax column. The column oven was set to 40° C., the flow rate was 100 μL/minute, and injection volumes were typically 5-10 μL. HPLC was performed using 5% acetonitrile/0.1% TFA in water as mobile phase A, and 80% acetonitrile/0.065% TFA as mobile phase B. The eluate was monitored spectiophotometrically at 214 nm. Peptide standards were dissolved in mobile phase A at 0. 1 mg/mL. The gradient was 25-35% B/10 minutes followed by a 5 minute wash step of 100% B and reequilibration at 25% B for 10 minutes.

[4] = tested on: Candida albicans SLU-1 strain; assay: Serum stability, anti-fungal activity after serum incubation by radial diffusion bioassay; format: in vitro ADME, rat or human serum
Protocol: as §1, §2, §3

[5] = tested on: mouse RAW 264.7 cells; conditions: RAW 264.7 cell growth inhibited by 50%
[6] = tested on: mouse RAW 264.7 cells incubated with E. coli O113 LPS; conditions: RAW 264.7 cells with E. coli O113 LPS; concentration reversing LPS growth inhibition by 50%

Molecule	half-life at 0.5 mg/mL [1] [h]	C. albicans pmol/30 mm^2 zone [2]	half-life at 0.5 mg/mL [3] [h]	further results
CC[C@H](C)[C@H](NC(=O)[C@H](CC(C)C)NC(=O)[C@H](Cc1c[nH]c2ccccc12)NC(=O)[C@@H](N)CCCCN)C(=O)N[C@@H](CCCN)C(=O)N[C@@H](CC(C)C)C(=O)N[C@@H](Cc1ccccc1)C(=O)N[C@@H](Cc1c[nH]cn1)C(=O)N[C@@H](CCCCN)C(=O)N[C@@H](CCCCN)C(N)=O [XMP.369] (H-KWLI[Orn]LFHKK-NH2)	1.4	993 pmol/30 mm^2 zone	0.6	C. albicans pmol/30 mm^2 zone ([2]; listed as XMP.369P′): 877 pmol/30 mm^2 zone
CC[C@@H](C)[C@@H](NC(=O)[C@@H](CCC(N)=O)NC(=O)[C@@H](CC(C)C)NC(=O)[C@@H](CCCCN)NC(=O)[C@H](N)CCCCN)C(=O)N[C@H](C)C(=O)N[C@H](Cc1c[nH]c2ccccc12)C(=O)N[C@H](CCCCN)C(=O)N[C@H](CCCCN)C(N)=O [XMP.376] (H-[dK][dK][dL][dQ][dI][dA][dW][dK][dK]-NH2)		138 pmol/30 mm^2 zone		Activity in Serum t ½ (hr.) [4]: indefinite; HPLC Peptide in Serum t ½ (hr.) [3]: indefinite
H-KKWAIQLKK-NH2 [XMP.344]	3.3	251 pmol/30 mm^2 zone	0.6	
H-PWLIQLFHKK-NH2 [XMP.355]	5.7	2,529 pmol/30 mm^2 zone	3.2	C. albicans pmol/30 mm^2 zone ([2]; listed as XMP.355P′): 218 pmol/30 mm^2 zone
H-KKPWAIQLKK-NH2 [XMP.379]	0.3	547 pmol/30 mm^2 zone	0.8	
CCCCCCCC(=O)N[C@@H](CCCCN)C(=O)N[C@@H](CCCCN)C(=O)N[C@@H](Cc1c[nH]c2ccccc12)C(=O)N[C@@H](C)C(=O)N[C@H](C(=O)N[C@@H](CCC(N)=O)C(=O)N[C@@H](CC(C)C)C(=O)N[C@@H](CCCCN)C(=O)N[C@@H](CCCCN)C(N)=O)[C@@H](C)CC [XMP.410] (Octanoyl-KKWAIQLKK-NH2)	2.9	599 pmol/30 mm^2 zone		IC50 (toxicity/growth inhibition of peptide) [5]: NA (NA for IC50 means no evidence of decreased RAW cell growth at up to 50 μg/ml); In Vitro LPS Neutralization EC50 [6]: >25 µg/mL
CCCCCCCCCCCC(=O)N[C@@H](CCCCN)C(=O)N[C@@H](CCCCN)C(=O)N[C@@H](Cc1c[nH]c2ccccc12)C(=O)N[C@@H](C)C(=O)N[C@H](C(=O)N[C@@H](CCC(N)=O)C(=O)N[C@@H](CC(C)C)C(=O)N[C@@H](CCCCN)C(=O)N[C@@H](CCCCN)C(N)=O)[C@@H](C)CC [XMP.411] (Lauroyl-KKWAIQLKK-NH2; C-terminus assumed)	4.2		9.7	IC50 (toxicity/growth inhibition of peptide) [5]: >25 µg/mL; In Vitro LPS Neutralization EC50 [6]: 2.94 ± 0.14 µg/mL
CC[C@H](C)[C@H](NC(=O)[C@H](CC(C)C)NC(=O)[C@H](Cc1c[nH]c2ccccc12)NC(=O)[C@H](CCCCN)NC(=O)[C@H]1CCCN1)C(=O)N[C@@H](CCC(N)=O)C(=O)N[C@@H](CC(C)C)C(=O)N[C@@H](CCCCN)C(=O)N[C@@H](CCCCN)C(N)=O [XMP.334]	4.7	1,449 pmol/30 mm^2 zone	3.2	C. albicans pmol/30 mm^2 zone ([2]; listed as XMP.334P′): 1,065 pmol/30 mm^2 zone
CC[C@H](C)[C@H](NC(=O)[C@H](CC(C)C)NC(=O)[C@H](Cc1c[nH]c2ccccc12)NC(=O)[C@H](CCCCN)NC(=O)[C@@H]1CCCN1)C(=O)N[C@@H](CCC(N)=O)C(=O)N[C@@H](CC(C)C)C(=O)N[C@@H](CCCCN)C(=O)N[C@@H](CCCCN)C(N)=O [XMP.335]	1.3	871 pmol/30 mm^2 zone	2.9	C. albicans pmol/30 mm^2 zone ([2]; listed as XMP.335P′): 1,353 pmol/30 mm^2 zone
H-KKWLIQLFHKK-NH2 [XMP.352]	1.2	354 pmol/30 mm^2 zone	0.7	
CC[C@H](C)[C@H](NC(=O)[C@H](CC(C)C)NC(=O)[C@H](Cc1c[nH]c2ccccc12)NC(=O)[C@H](CCCCN)NC(C)=O)C(=O)N[C@@H](CCCN)C(=O)N[C@@H](CC(C)C)C(=O)N[C@@H](Cc1ccccc1)C(=O)N[C@@H](Cc1c[nH]cn1)C(=O)N[C@@H](CCCCN)C(=O)N[C@@H](CCCCN)C(N)=O [XMP.370] (Ac-KWLI[Orn]LFHKK-NH2)	4.7	310 pmol/30 mm^2 zone	2.9	
CC[C@H](C)[C@H](NC(=O)[C@H](CC(C)C)NC(=O)[C@H](Cc1c[nH]c2ccccc12)NC(=O)[C@H](CCCCN)NC(C)=O)C(=O)N[C@@H](CCN)C(=O)N[C@@H](CC(C)C)C(=O)N[C@@H](Cc1ccccc1)C(=O)N[C@@H](Cc1c[nH]cn1)C(=O)N[C@@H](CCCCN)C(=O)N[C@@H](CCCCN)C(N)=O [XMP.372] (Ac-KWLI[Dab]LFHKK-NH2)	1.4	328 pmol/30 mm^2 zone	6.6	
CC[C@@H](C)[C@@H](NC(=O)[C@@H](CCC(N)=O)NC(=O)[C@@H](CC(C)C)NC(=O)[C@@H](Cc1ccccc1)NC(=O)[C@@H](Cc1c[nH]cn1)NC(=O)[C@@H](CCCCN)NC(=O)[C@@H](CCCCN)NC(C)=O)C(=O)N[C@H](CC(C)C)C(=O)N[C@H](Cc1c[nH]c2ccccc12)C(=O)N[C@H](CCCCN)C(N)=O [XMP.368]	25.2	744 pmol/30 mm^2 zone	34.1	
H-KKWLIQAKK-NH2 [XMP.345]	2.7	1,211 pmol/30 mm^2 zone	1.4	
H-PWAIQLFHKK-NH2 [XMP.387]	2.3	82 pmol/30 mm^2 zone	2.8	
CC[C@H](C)[C@H](NC(=O)[C@H](CC(C)C)NC(=O)[C@H](Cc1c[nH]c2ccccc12)NC(=O)[C@@H](N)CCCCN)C(=O)N[C@@H](CCN)C(=O)N[C@@H](CC(C)C)C(=O)N[C@@H](Cc1ccccc1)C(=O)N[C@@H](Cc1c[nH]cn1)C(=O)N[C@@H](CCCCN)C(=O)N[C@@H](CCCCN)C(N)=O [XMP.371] (H-KWLI[Dab]LFHKK-NH2)	0.9	843 pmol/30 mm^2 zone		C. albicans pmol/30 mm^2 zone ([2]; listed as XMP.371P′): 523 pmol/30 mm^2 zone
CC[C@H](C)[C@H](NC(=O)[C@H](CC(C)C)NC(=O)[C@@H](Cc1ccc2ccccc2c1)NC(=O)[C@H](CCCCN)NC(=O)[C@@H](N)CCCCN)C(=O)N[C@@H](CC(C)C)C(=O)N[C@@H](CC(C)C)C(=O)N[C@@H](CCCCN)C(=O)N[C@@H](CCCCN)C(N)=O [XMP.347] (H-KK[d2Nal]LILLKK-NH2)	5.2	391 pmol/30 mm^2 zone	2.5	
H-KWLIQLFHKP-NH2 [XMP.357]	0.8	204 pmol/30 mm^2 zone		
H-GWLIQLFHKK-NH2 [XMP.388]	1.4	170 pmol/30 mm^2 zone	0.4	
H-KKWLIQLKKK-NH2 [XMP.349]	3.3	120 pmol/30 mm^2 zone	1.4	
